Experimental data: patent US11111240B2, “Sultam compound and application method thereof” (Chia Tai Tianqing Pharmaceutical Group Co., Ltd., priority 2016, dated 2021)
Like-named read-outs stand apart in the source and are kept apart here. One block for each molecule: values may come before it.

Assays:
IDH1 (R132C) = IDH1 (R132C) (Homo sapiens (Human), UniProt O75874, R132C); assay: Enzyme assay, IDH1m inhibition (NADPH decrease, diaphorase/resazurin); format: biochemical; details: 40 nM enzyme, 16 h pre-incubation at 23° C.
Excerpt: (§1) Resazurin is a traditional redox dye, and after a redox reaction, it can be reduced from a blue resazurin without fluorescence to a pink fluorescent substance, resorufin, which can be measured and quantified with relative fluorescence unit (RFU) of fluorophotometer (Ex=530-570 nm, Em=590-620 nm). At present, resazurin is widely used for determining the viability of bacteria, cells, etc. and the enzyme activity detection of oxidoreductase. We detected the decrease of cofactor NADPH to determine the inhibitory activity of a compound against IDH1m and detected the generation of cofactor NADPH to determine the inhibitory activity of a compound against IDH WT. The compound was pre-incubated with IDH1m and NADPH, and then the reaction was initiated by adding α-KG and performed for certain time under a linear condition. Then, diaphorase (lipoamide dehydrogenase) and the corresponding substrate resazurin were added thereto for detection. Lipoamide dehydrogenase terminated the IDH1m reaction by decreasing the available cofactor NADPH, which oxidized NADPH to NADP, and reduced resazurin to high fluorescent resorufin. The amount of the remaining cofactor NADPH after a specific reaction time was quantified via an easily detectable fluorophore.
(§2) The specific operation was as follows: 2.5 μl of the compound diluted in a 3-fold gradient was added to a 384-well plate, followed by adding 5 μl of the reaction buffer (20 mM Tris-HCl, pH 7.5; 150 mM NaCl; 10 mM MgCl2; 0.4 mg/mL BSA (Bovine Serum Albumin) and 2 mM DTT (dithiothreitol)) containing 40 nM IDH1 (R132H/R132C) and 20 μM NADPH. Then, the above test mixture was incubated at 23° C. for 16 hours, and then 2.5 μl of the reaction buffer containing 4 mM α-KG was added to initiate the reaction. After they were incubated for 60 minutes at room temperature, 5 μl of the termination mixture (0.4 U/ml diaphorase and 20 μM resazurin) formulated with the reaction buffer was added to convert resazurin to resorufin, so as to measure the amount of the remaining NADPH. After incubating at 23° C. for 10 minutes, fluorescence values were determined through Flexstation 3 at Ex535/Em595. The enzyme activity of each compound was respectively determined at 12 concentrations, and the data were calculated using the software GraFit6.0 (Erithacus Software) to obtain the IC50 value of each compound.

IDH1 (R132H) = IDH1 (R132H) (Homo sapiens (Human), UniProt O75874, R132H); assay: as above; format: biochemical; details: 40 nM enzyme, 16 h pre-incubation at 23° C.
Excerpt: as §1, §2

U87/IDH1 (R132H) cells = assay: Inhibitory activity on IDH1-mutated U87 cells (2-HG determination); format: cell-based; details: Homo sapiens, U-87 MG
Procedure: In the presence of 2-HG, phosphoglycerate dehydrogenase PHGDH can reduce NAD to NADPH, and the latter may be quantitatively determined by lipoamide dehydrogenase and the substrate thereof, resazurin.
U87 cell is a human glioblastoma cell line with an IDH1 mutation (R132H).
Cells was digested with trypsin, and inoculated into a 6-well plate at a density of 5×10^5, and cultured overnight in an incubator at 37° C. […] Culture medium of each sample was sucked out and centrifuged at 1000 rpm for 10 min. The supernatant was sucked out to detect the content of 2-HG therein. Additionally, cells were washed with PBS (phosphate buffered saline), digested with trypsin and collected. After the collected cells were washed with PBS for one time, the determination of intracellular 2-HG content was performed.
The method for determining the intracellular 2-HG was as follows: cells were re-suspended with 300 μL reaction buffer (40 mM Tris-HCl, pH 8.5; 150 mM NaCl) and disrupted by ultrasonication. They were centrifuged for 10 min at 12,000 rpm and 4° C. to remove insoluble substances. 25 μL supernatant was sucked out to determine the protein concentration by a BCA kit. […]
The measured fluorescence values were compared after being corrected with the protein concentrations of the corresponding samples.

[1] = Pharmacokinetic experiments in male SD rats, single peroral administration; format: in vivo, rat; details: for Cmax / Tmax / AUC(0-inf) / half-life: plasma; for AUC(0-inf): read-out: AUCINF—obs
Procedure: Male SD rats were from Beijing Vital River Laboratory Animal Technology Co., Ltd., and divided into groups (3 rats per group). The rats were intragastrically administered with the test sample suspension (5 mg/kg) via a single peroral administration, respectively. The animals were fasted overnight before this study. The fasting time period was from 10 hours before administration to 4 hours after administration. Blood samples were taken at 0.25, 0.5, 1, 2, 4, 6, 8 and 24 hours after administration. After the rats were anesthetized with isoflurane using an anesthesia machine for small animal, and then 0.3 mL whole blood samples were taken from the fundus venous plexus. The blood samples were placed in heparin anticoagulant tubes, and centrifuged for 5 min at 4° C. and 4000 rpm. The plasma was transferred to centrifuge tubes, and stored at −80° C. until analysis. The samples in plasma were extracted through protein precipitation. The liquid extract was analyzed by LC-MS/MS, wherein HPLC conditions were as follows: flow rate 0.4 mL/min; mobile phase A: water/formic acid (99.9/0.1, v/v); mobile phase B: acetonitrile/formic acid (99.9/0.1, v/v); injection volume: 5 μL; column temperature: RT; autosampler temperature: RT; run time: 2.5 min.

[2] = rat, male SD rats, oral 5 mg/kg, 0.5% MC, 0.2% Tween80

IDH1 (R132H), sequence (O75874 whole entry R132H): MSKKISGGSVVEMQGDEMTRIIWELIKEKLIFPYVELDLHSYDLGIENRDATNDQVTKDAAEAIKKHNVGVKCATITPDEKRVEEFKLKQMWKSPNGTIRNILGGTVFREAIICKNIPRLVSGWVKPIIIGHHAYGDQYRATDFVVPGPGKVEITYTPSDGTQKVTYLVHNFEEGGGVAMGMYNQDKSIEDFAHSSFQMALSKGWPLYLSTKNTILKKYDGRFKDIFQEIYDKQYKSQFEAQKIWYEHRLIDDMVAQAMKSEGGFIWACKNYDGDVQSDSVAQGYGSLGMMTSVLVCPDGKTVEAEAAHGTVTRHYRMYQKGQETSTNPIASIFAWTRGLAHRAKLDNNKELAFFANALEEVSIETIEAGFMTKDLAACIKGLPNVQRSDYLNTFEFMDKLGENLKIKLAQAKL
IDH1 (R132C), sequence (O75874 whole entry R132C): as the sequence (O75874 whole entry R132H) above, with H132C counted along it

Compound: N#Cc1ccnc(N2[C@H](C(=O)N(c3cncc(F)c3)[C@H](C(=O)NC3CC(F)(F)C3)c3ccccc3Cl)CCS2(=O)=O)c1 [Example 2, (S)—N—((S)-1-(2-chlorophenyl)-2-((3,3-difluorocyclobutyl)amino)-2-oxoethyl)-2-(4-cyanopyridin-2-yl)-N-(5-fluoropyridin-3-yl)-isothiazolidine-3-carboxamide 1,1-dioxide]
- IC50 (IDH1 (R132C)): < 20 nM
- IC50 (IDH1 (R132H)): < 20 nM
- IC50 (U87/IDH1 (R132H) cells): 6.7 nM

Compound: N#Cc1ccnc(N2C(=O)CC[C@H]2C(=O)N(c2cncc(F)c2)[C@H](C(=O)NC2CC(F)(F)C2)c2ccccc2Cl)c1 [AG-120, ivosidenib, reference compound]
- IC50 (U87/IDH1 (R132H) cells): 46 nM
- Cmax [1, 2]: 719 ng/mL
- Tmax [1, 2]: 0.67 h
- AUC(0-inf) [1, 2]: 6320 ng·h/mL
- half-life ([1]; rat, male SD rats, oral 5 mg/kg, 0.5% MC, 0.2% Tween80, read-out: T1/2 (converted)): 3.28 h

Compound: N#Cc1ccnc(N2[C@H](C(=O)N(c3cccc(F)c3)[C@H](C(=O)NC3CC(F)(F)C3)c3ccccc3Cl)CCS2(=O)=O)c1 [Example 12, (S)—N—((S)-1-(2-chlorophenyl)-2-((3,3-difluorocyclobutyl)amino)-2-oxoethyl)-2-(4-cyanopyridin-2-yl)-N-(3-fluorophenyl)-isothiazolidine-3-carboxamide 1,1-dioxide]
- IC50 (IDH1 (R132C)): < 20 nM
- IC50 (IDH1 (R132H)): < 20 nM
- T1/2 ([1]; male SD rats, oral 5 mg/kg, 0.5% MC, 0.2% Tween80): 10.7 h
- half-life ([1]; male, SD, 5 mg/kg, rat, oral, read-out: half-life (converted)): 10.7 h
- Cmax [1, 2]: 556 ng/mL
- Tmax [1, 2]: 4 h
- AUC(0-inf) [1, 2]: 10600 ng·h/mL
- drug exposure in plasma compared with AG-120 ([1]; rat, same oral dose): far higher than that of AG-120

Compound: N#Cc1ccnc(N2[C@H](C(=O)N(c3cncc(F)c3)[C@@H](C(=O)NC3CC(F)(F)C3)c3ccccc3Cl)CCS2(=O)=O)c1 [Example 1, (S)—N—((R)-1-(2-chlorophenyl)-2-((3,3-difluorocyclobutyl)amino)-2-oxoethyl)-2-(4-cyanopyridin-2-yl)-N-(5-fluoropyridin-3-yl)-isothiazolidine-3-carboxamide 1,1-dioxide]
- IC50 (IDH1 (R132H)): < 10000 nM

Compound: N#Cc1ccnc(N2[C@H](C(=O)N(c3cccc(F)c3)[C@H](C(=O)NC3CCCCC3)c3ccccc3Cl)CCS2(=O)=O)c1 [Example 16, (S)—N—((S)-1-(2-chlorophenyl)-2-(cyclohexylamino)-2-oxoethyl)-2-(4-cyanopyridin-2-yl)-N-(3-fluorophenyl)-isothiazolidine-3-carboxamide 1,1-dioxide]
- IC50 (IDH1 (R132H)): < 20 nM

The remaining lines, values ahead:

- IC50 (IDH1 (R132H)): < 10000 nM
Compound: N#Cc1cccc(CN2[C@H](C(=O)N(c3cccc(F)c3)C(C(=O)NC3CCCCC3)c3ccccc3Cl)CCS2(=O)=O)c1 (some centres unmarked) [Example 21]

- IC50 (IDH1 (R132H)): 20 nM
Compound: CN1C[C@@H](C(=O)N(c2cccc(F)c2)C(C(=O)NC2CC(F)(F)C2)c2ccccc2Cl)N(c2cc(C#N)ccn2)S1(=O)=O (stereo partly drawn) [Example 25, (3S)—N-(1-(2-chlorophenyl)-2-((3,3-difluorocyclobutyl)amino)-2-oxoethyl)-2-(4-cyanopyridin-2-yl)-N-(3-fluorophenyl)-5-methyl-1,2,5-thiadiazolidine-3-carboxamide 1,1-dioxide]
